The target of this experiment is Human ATX protein (Homo sapiens (Human), UniProt Q13822). In words: ATX biochemical FRET assay with FS-3 substrate. As to conditions: 1.0 μg/mL ATX, 2 μM FS-3, 2 hours at room temperature. An excerpt: ATX (Autotaxin) is a 125 KDa glycoprotein with lysophospholipase D (LPLD) activity that generates the bioactive lipid lysophosphatidic acid (LPA) from lysophosphatidylcholine (LPC). The ATX biochemical assay utilizes a FRET (fluorescence resonance energy transfer) technology platform. The fluorescence signal of FRET substrate FS-3 is quenched due to intra-molecular FRET of a fluorophore to a non-fluorescing quencher (Ferguson, C. G., et al., Org Lett. 2006 May 11; 8(10): 2023-2026, which is incorporated by reference in its entirety). ATX catalyzes the hydrolysis of the substrate which separates the dabsyl quencher from the fluorescein reporter, which becomes fluorescent. The reaction is monitored by a SpectraMax M5 (Molecular Devices, Sunnyvale, Calif.) with at excitation wavelength 485 nm and emission wavelength […].
2×ATX assay buffer: 100 mM Tris, 280 mM NaCl, 10 mM KCl, 2 mM CaCl2, 2 mM MgCl2, pH 7.4.
Human ATX protein: expressed and purified in house. Stored at −80° C.
Substrate FS-3 (Echelon, L-2000): 100 μg in 77.74 μL H2O (1 mM stock), stored at −20° C.
Compound dilution—All compounds were provided at 10 mM in 100% DMSO. In the first well, 2 μL of 10 mM compound was added to 78 μL of DMSO (1:40 dilution). In subsequent wells 3-fold dilution (total 10 dilutions) were performed.
1×ATX assay buffer was made up with a final concentration of 1 mg/mL fatty acid free-BSA using 2×ATX assay buffer, 10 mg/ml fatty acid free-BSA and ddH2O.
ATX protein was diluted with 1×ATX assay buffer to a concentration of 1.32 μg/mL (1.32×). 38 μL was added per well to the assay plate. The final concentration of ATX in the reaction as 1.0 μg/mL.
2 μL per well of compounds was transferred to provide the desired concentration. The plate was centrifuged, then incubated at room temperature for 30 minutes on the shaker.
FS-3 was diluted with 1×ATX assay buffer to a concentration of FS-3 of 10 μM (5×). Then, 10 μL was added per well to the assay plate. The final concentration of FS-3 in the reaction was 2 μM. The plate was centrifuged. The plate was kept shaking at room temperature for 2 hours. Because FS-3 substrate is light sensitive, plates were kept covered and protected from light.
Fluorescence was measured using SpectraMax M5 (excitation at 485 nm/emission at 538 nm, top read).

For orientation: IC50 means the concentration that gives 50% inhibition. A high value points to a need for much substance.

For the molecule `CC(C)[C@H]1CC[C@H](Oc2cccc3cc(CN4CCC(C(=O)O)CC4)ccc23)CC1` [Example 13, 1-((5-((trans-4-isopropylcyclohexyl)oxy)naphthalen-2-yl)methyl)piperidine-4-carboxylic acid], the half-inhibitory concentration (IC50) fell in the range of 0.5 to 5 µM.

`CCCCCCCOc1cccc2cc(CN3CCC(C(=O)O)CC3)ccc12` [Example 25, 1-((5-(heptyloxy)naphthalen-2-yl)methyl)piperidine-4-carboxylic acid] returned an IC50 above 5 µM. In the case of `O=C(O)C1CN(Cc2ccc3c(O[C@H]4CC[C@H](C5CCCC5)CC4)cccc3c2)C1` [Example 23, 1-((5-((trans-4-cyclopentylcyclohexyl)oxy)naphthalen-2-yl)methyl)azetidine-3-carboxylic acid] it was above 5 µM; in that of `CC(C)[C@H]1CC[C@H](Oc2cccc3cc(CN4CC(C(=O)O)C4)ccc23)CC1` [Example 21, 1-((5-((trans-4-isopropylcyclohexyl)oxy)naphthalen-2-yl)methyl)azetidine-3-carboxylic acid], above 5 µM; in that of `CC(C)(C)[C@H]1CC[C@H](Oc2cccc3cc(CN4CC5CC(C(=O)O)CC5C4)ccc23)CC1` (stereo partly drawn) [Example 5, 2-((5-((trans-4-(tert-butyl)cyclohexyl)oxy)naphthalen-2-yl)methyl)octahydrocyclopenta[c]pyrrole-5-carboxylic acid], 0.5 to 5 µM. Take `CC[C@H]1CC[C@H](Oc2cccc3cc(CN4CCC(C(=O)O)CC4)ccc23)CC1` [Example 14, 1-((5-((trans-4-ethylcyclohexyl)oxy)naphthalen-2-yl)methyl)piperidine-4-carboxylic acid]: the IC50 was in the range of 0.5 to 5 µM. The figure for `CC(C)(C)[C@H]1CC[C@H](Oc2cccc3cc(CN4CCC(C(=O)O)CC4)ccc23)CC1` [Example 24, 1-((5-((trans-4-(tert-butyl)cyclohexyl)oxy)naphthalen-2-yl)methyl)piperidine-4-carboxylic acid] is below 0.5 µM. The figure for `CC[C@H]1CC[C@H](Oc2cccc3cc(CN4CC(C(=O)O)C4)ccc23)CC1` [Example 19, 1-((5-((trans-4-ethylcyclohexyl)oxy)naphthalen-2-yl)methyl)azetidine-3-carboxylic acid] is 0.5 to 5 µM; for `CC(C)(C)[C@H]1CC[C@H](Oc2cccc3cc(CN4C5CCCC4CC(C(=O)O)C5)ccc23)CC1` (stereo partly drawn) [Example 2, 9-((5-((trans-4-(tert-butyl)cyclohexyl)oxy)naphthalen-2-yl)methyl)-9-azabicyclo[3.3.1]nonane-3-carboxylic acid] it is above 5 µM. For `O=C(O)C1CCN(Cc2ccc3c(O[C@H]4CC[C@H](C(F)(F)F)CC4)cccc3c2)CC1` [Example 9, 1-((5-((trans-4-(trifluoromethyl)cyclohexyl)oxy)naphthalen-2-yl)methyl)piperidine-4-carboxylic acid], the half-maximal inhibitory concentration (IC50) is 0.5 to 5 µM. As to `CCCC[C@H]1CC[C@H](Oc2cccc3cc(CN4CC(C(=O)O)C4)ccc23)CC1` [Example 22, 1-((5-((trans-4-butylcyclohexyl)oxy)naphthalen-2-yl)methyl)azetidine-3-carboxylic acid], the IC50 is above 5 µM. On to `CC[C@H]1CC[C@@H](Oc2cccc3cc(CN4CCC(C(=O)O)CC4)ccc23)CC1` [Example 12, 1-((5-((cis-4-ethylcyclohexyl)oxy)naphthalen-2-yl)methyl)piperidine-4-carboxylic acid], for which the IC50 lay in the range of 0.5 to 5 µM. In the case of `C[C@H]1CC[C@@H](Oc2cccc3cc(CN4C5CCCC4CC(C(=O)O)C5)ccc23)CC1` (stereo partly drawn) [Example 26, 9-((5-((cis-4-methylcyclohexyl)oxy)naphthalen-2-yl)methyl)-9-azabicyclo[3.3.1]nonane-3-carboxylic acid] it was 0.5 to 5 µM; in that of `O=C(O)C1CCN(Cc2ccc3c(O[C@H]4CC[C@@H](C(F)(F)F)CC4)cccc3c2)CC1` [Example 10, 1-((5-((cis-4-(trifluoromethyl)cyclohexyl)oxy)naphthalen-2-yl)methyl)piperidine-4-carboxylic acid], above 5 µM.

In turn, `CC(C)(C)[C@H]1CC[C@H](Oc2cccc3cc(CN4CC(C(=O)O)C4)ccc23)CC1` [Example 4, 1-((5-((trans-4-(tert-butyl)cyclohexyl)oxy)naphthalen-2-yl)methyl)azetidine-3-carboxylic acid] showed an IC50 below 0.5 µM. In the case of `C[C@H]1CC[C@H](Oc2cccc3cc(CN4CC(C(=O)O)C4)ccc23)CC1` [Example 17, 1-((5-((trans-4-methylcyclohexyl)oxy)naphthalen-2-yl)methyl)azetidine-3-carboxylic acid] it was above 5 µM. In the case of `CC(C)[C@H]1CC[C@@H](Oc2cccc3cc(CN4CCC(C(=O)O)CC4)ccc23)CC1` [Example 11, 1-((5-((cis-4-isopropylcyclohexyl)oxy)naphthalen-2-yl)methyl)piperidine-4-carboxylic acid] it was above 5 µM. In the case of `CC(C)(C)[C@H]1CC[C@H](Oc2cccc3cc(CN4CCCC(C(=O)O)CC4)ccc23)CC1` (stereo partly drawn) [Example 8, 1-((5-((trans-4-(tert-butyl)cyclohexyl)oxy)naphthalen-2-yl)methyl)azepane-4-carboxylic acid] it was above 5 µM; in that of `CC(C)(C)[C@H]1CC[C@H](Oc2cccc3cc(CNC4CC(C(=O)O)C4)ccc23)CC1` (stereo partly drawn) [Example 7, 3-(((5-((trans-4-(tert-butyl)cyclohexyl)oxy)naphthalen-2-yl)methyl)amino)cyclobutanecarboxylic acid], 0.5 to 5 µM. Turning to `C[C@H]1CC[C@@H](Oc2cccc3cc(CN4CCC(C(=O)O)CC4)ccc23)CC1` [Example 28, 1-((5-((cis-4-methylcyclohexyl)oxy)naphthalen-2-yl)methyl)piperidine-4-carboxylic acid], the IC50 was above 5 µM.

In the case of `O=C(O)C1CN(Cc2ccc3c(O[C@H]4CC[C@H](C(F)(F)F)CC4)cccc3c2)C1` [Example 20, 1-((5-((trans-4-(trifluoromethyl)cyclohexyl)oxy)naphthalen-2-yl)methyl)azetidine-3-carboxylic acid], the IC50 fell in the range of 0.5 to 5 µM. The figure for `CC1(C)C(NCc2ccc3c(O[C@H]4CC[C@H](C(C)(C)C)CC4)cccc3c2)CC1C(=O)O` (stereo partly drawn) [Example 3, 3-(((5-((trans-4-(tert-butyl)cyclohexyl)oxy)naphthalen-2-yl)methyl)amino)-2,2-dimethylcyclobutanecarboxylic acid] is 0.5 to 5 µM; for `C[C@H]1CC[C@@H](Oc2cccc3cc(CN4C5CCC4CC(C(=O)O)C5)ccc23)CC1` (stereo partly drawn) [Example 27, 8-((5-((cis-4-methylcyclohexyl)oxy)naphthalen-2-yl)methyl)-8-azabicyclo[3.2.1]octane-3-carboxylic acid] it is 0.5 to 5 µM. In the case of `O=C(O)C1CN(Cc2ccc3c(O[C@H]4CC[C@H](c5ccccc5)CC4)cccc3c2)C1` [Example 18, 1-((5-((trans-4-phenylcyclohexyl)oxy)naphthalen-2-yl)methyl)azetidine-3-carboxylic acid] it was above 5 µM; in that of `CC(C)(C)[C@H]1CC[C@H](Oc2cccc3cc(CN4C5CCC4CC(C(=O)O)C5)ccc23)CC1` (stereo partly drawn) [Example 1, 8-((5-((trans-4-(tert-butyl)cyclohexyl)oxy)naphthalen-2-yl)methyl)-8-azabicyclo[3.2.1]octane-3-carboxylic acid], 0.5 to 5 µM.

Turning to `C[C@H]1CC[C@H](Oc2cccc3cc(CN4CCC(C(=O)O)CC4)ccc23)CC1` [Example 15, 1-((5-((trans-4-methylcyclohexyl)oxy)naphthalen-2-yl)methyl)piperidine-4-carboxylic acid], the IC50 is 0.5 to 5 µM.

For the origin of these results see US10273234B2, “Compounds that are S1P modulating agents and/or ATX modulating agents” (BIOGEN MA INC., priority 2012, dated 2019).
